Test results taken from the supplement of paper PMC10307832.

How the values were obtained:
Test in all cases: relative viability (nuclei count vs DMSO), 5 days (fraction); higher = more cells survive
Adavosertib + Bortezomib = compound: C=CCn1c(=O)c2cnc(Nc3ccc(N4CCN(C)CC4)cc3)nc2n1-c1cccc(C(C)(C)O)n1 [Adavosertib] + CC(C)C[C@H](NC(=O)[C@H](Cc1ccccc1)NC(=O)c1cnccn1)B(O)O [Bortezomib] (partner 0.002 µM)
In short: (§1)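 Relative viability equals treated-well nuclei counts divided by vehicle-well nuclei counts. Counts came from 4× images of lung cancer cell lines grown in 1536-well plates for 5 days after pin-tool dosing on the day after seeding. Dosing used one drug alone or a fixed anchor-drug dose plus five library-drug doses (not always all listed) in √10 steps, and values are medians of duplicate plates.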

Adavosertib + Decitabine = compound: C=CCn1c(=O)c2cnc(Nc3ccc(N4CCN(C)CC4)cc3)nc2n1-c1cccc(C(C)(C)O)n1 [Adavosertib] + Nc1ncn([C@H]2C[C@H](O)[C@@H](CO)O2)c(=O)n1 [Decitabine] (partner 2 µM)
In short: as §1

Nelarabine + Luminespib = compound: COc1nc(N)nc2c1ncn2[C@@H]1O[C@H](CO)[C@@H](O)[C@@H]1O [Nelarabine] + CCNC(=O)c1noc(-c2cc(C(C)C)c(O)cc2O)c1-c1ccc(CN2CCOCC2)cc1 [Luminespib] (partner 0.01 µM)
In short: as §1

Nelarabine + Dasatinib = compound: COc1nc(N)nc2c1ncn2[C@@H]1O[C@H](CO)[C@@H](O)[C@@H]1O [Nelarabine] + Cc1nc(Nc2ncc(C(=O)Nc3c(C)cccc3Cl)s2)cc(N2CCN(CCO)CC2)n1 [Dasatinib] (partner 0.075 µM)
In short: as §1

Cell Line | relative viability (Adavosertib + Bortezomib; first compound 0.01 µM) | relative viability (Adavosertib + Bortezomib; first compound 0.03162 µM) | relative viability (Adavosertib + Bortezomib; first compound 0.1 µM) | relative viability (Adavosertib + Bortezomib; first compound 0.3162 µM) | relative viability (Adavosertib + Decitabine; first compound 0.01 µM) | relative viability (Adavosertib + Decitabine; first compound 0.03162 µM) | relative viability (Adavosertib + Decitabine; first compound 0.1 µM) | relative viability (Adavosertib + Decitabine; first compound 0.3162 µM) | relative viability (Nelarabine + Luminespib; first compound 0.01 µM) | relative viability (Nelarabine + Luminespib; first compound 0.03162 µM) | relative viability (Nelarabine + Luminespib; first compound 0.1 µM) | relative viability (Nelarabine + Luminespib; first compound 0.3162 µM) | relative viability (Nelarabine + Luminespib; first compound 1 µM) | relative viability (Nelarabine + Dasatinib; first compound 0.01 µM) | relative viability (Nelarabine + Dasatinib; first compound 0.03162 µM) | relative viability (Nelarabine + Dasatinib; first compound 0.1 µM) | relative viability (Nelarabine + Dasatinib; first compound 0.3162 µM) | relative viability (Nelarabine + Dasatinib; first compound 1 µM)
COR-L 105 | 0.984 | 0.719 | 0.855 | 0.627 | 0.691 | 0.6 | 0.618 | 0.651 | 0.701 | 0.822 | 0.792 | 0.669 | 0.904 | 0.339 | 0.402 | 0.259 | 0.351 | 0.319
UMC-11 | 0.737 | 0.481 | 0.927 | 0.708 | 0.646 | 0.606 | 0.608 | 0.654 | 1.24 | 0.961 | 1.03 | 0.973 | 0.893 | 0.698 | 0.463 | 0.575 | 0.541 | 0.608
NCI-H1975 | 0.356 | 0.353 | 0.399 | 0.324 | 0.37 | 0.412 | 0.439 | 0.399 | 0.237 | 0.244 | 0.169 | 0.198 | 0.464 | 0.431 | 0.343 | 0.316 | 0.434 | 0.462
LXF-289 | 0.959 | 0.948 | 0.999 | 0.999 | 0.362 | 0.411 | 0.399 | 0.358 | 0.792 | 0.655 | 0.659 | 0.832 | 0.578 | 0.156 | 0.218 | 0.146 | 0.202 | 0.196
NCI-H1993 | 0.94 | 0.962 | 1.09 | 1.11 | 0.58 | 0.593 | 0.617 | 0.585 | 0.861 | 0.721 | 0.917 | 0.965 | 0.798 | 0.692 | 0.505 | 0.553 | 0.665 | 0.635
NCI-H23 | 0.97 | 1.05 | 0.844 | 0.327 | 0.299 | 0.31 | 0.255 | 0.246 | 0.226 | 0.201 | 0.23 | 0.225 | 0.21 | 1.01 | 0.838 | 0.588 | 0.927 | 0.819
NCI-H1650 | 0.223 | 0.211 | 0.207 | 0.194 | 0.449 | 0.415 | 0.564 | 0.27 | 0.195 | 0.181 | 0.225 | 0.234 | 0.204 | 0.265 | 0.329 | 0.27 | 0.305 | 0.329
NCI-H2023 | 0.94 | 0.937 | 0.682 | 0.437 | 0.203 | 0.224 | 0.191 | 0.141 | 1.07 | 0.596 | 0.905 | 0.834 | 0.7 | 0.825 | 0.59 | 0.382 | 0.62 | 0.66
COR-L23 | 0.976 | 1.03 | 0.95 | 0.546 | 0.45 | 0.523 | 0.45 | 0.277 | 0.973 | 0.796 | 0.576 | 0.906 | 0.869 | 0.611 | 0.442 | 0.502 | 0.543 | 0.402
LCLC-97TM1 | 0.284 | 0.635 | 0.577 | 0.233 | 0.262 | 0.264 | 0.246 | 0.221 | 0.912 | 0.688 | 0.856 | 0.713 | 0.78 | 1.03 | 0.506 | 0.779 | 0.95 | 0.806
NCI-H441 | 0.38 | 0.761 | 0.414 | 0.354 | 0.29 | 0.266 | 0.264 | 0.289 | 0.306 | 0.372 | 0.286 | 0.294 | 0.268 | 0.598 | 0.516 | 0.43 | 0.596 | 0.784
NCI-H1734 | 1.01 | 1.01 | 1.02 | 0.696 | 0.501 | 0.511 | 0.474 | 0.363 | 0.193 | 0.161 | 0.193 | 0.209 | 0.187 | 0.559 | 0.411 | 0.418 | 0.527 | 0.532
NCI-H1437 | 0.56 | 0.596 | 0.475 | 0.518 | 0.57 | 0.633 | 0.636 | 0.618 | 1.3 | 1.02 | 1.13 | 1.21 | 1.02 | 0.554 | 0.468 | 0.304 | 0.466 | 0.362
NCI-H727 | 0.867 | 0.869 | 0.877 | 0.945 | 0.843 | 0.845 | 0.899 | 0.909 | 0.305 | 0.377 | 0.351 | 0.469 | 0.298 | 0.318 | 0.418 | 0.295 | 0.249 | 0.44
NCI-H1651 | 0.902 | 0.963 | 1 | 0.935 | 0.578 | 0.681 | 0.603 | 0.525 | 1.01 | 0.953 | 0.822 | 0.985 | 0.856 | 0.4 | 0.372 | 0.387 | 0.355 | 0.368
NCI-H838 | 0.993 | 0.946 | 0.754 | 0.824 | 0.516 | 0.53 | 0.612 | 0.497 | 0.316 | 0.321 | 0.31 | 0.257 | 0.221 | 0.276 | 0.217 | 0.225 | 0.321 | 0.374
NCI-H460 | 1.14 | 0.966 | 1.22 | 0.966 | 0.569 | 0.449 | 0.512 | 0.393 | 0.0293 | 0.0328 | 0.0352 | 0.0376 | 0.0317 | 0.66 | 0.601 | 0.452 | 0.64 | 0.495
SK-LU-1 | 1.07 | 1.29 | 1.16 | 0.479 | 0.616 | 0.64 | 0.631 | 0.461 | 0.225 | 0.154 | 0.215 | 0.199 | 0.223 | 0.179 | 0.105 | 0.142 | 0.171 | 0.165
